Molecules are shown by their SMILES.

Broadly, the boiling point is the temperature of boiling at a given pressure. Broadly, the melting point is the temperature of the solid-liquid transition. As for `FC(F)(F)S(F)(F)(F)(F)F`, the boiling point was -20 °C and the melting point was -87 °C.

Consider `Clc1ccc(Cn2c(CN3CCCC3)nc3ccccc32)cc1`, for which the melting point came out at 167 °C.

The compound `CCCOP(=S)(OCCC)SCC(=O)N1CCCCC1C` (centres undefined) gave a log10 Koc (L/kg) of 3.44 and a log10 vapour pressure (mmHg) of -6.62.

For the compound `O=S(=O)(Cl)Cc1ccccc1`, the ready biodegradability result is recorded as “readily biodegradable”.

For the compound `CCCCCCCCCCCCCC(=O)OC(=O)CCCCCCCCCCCCC`, the melting point was found to be 53.4 °C.

`Nc1cccc2cc(O)ccc12` displayed a melting point of 191 °C.

For the compound `O=C(c1ccccc1)c1ccccc1O`, the melting point came out at 40 °C.

In turn, `CCCC(C)(O)CC(C)C` (centres undefined) showed a boiling point of 171 °C.

`CC(C)(O)CCC(C)(C)O` had a boiling point of 214 °C and a melting point of 92 °C.

Compound `CCCCCCCCCCOC(=O)CCCCC(=O)OCCCCCCCC` came in with a melting point of -50 °C.

`COc1ccc2c(c1OC)C(=O)O[C@@H]2[C@H]1c2cc3c(cc2CCN1C)OCO3` came in with a melting point of 132 °C.

On to `C[Si](C)(C)O[Si](C)(C)C`, for which the boiling point came out at 99 °C, the log10 vapour pressure (mmHg) came out at 1.62 and the melting point was -66 °C.

The compound `CCc1cc(CC)cc(CC)c1` returned a boiling point of 216 °C and a melting point of -66.5 °C.

`CCCCOCOCCCC` had a boiling point of 179 °C and a melting point of -58.1 °C.

The compound `CCOC(=O)C(C)(C)Br` had a boiling point of 163 °C and a log10 vapour pressure (mmHg) of 0.417.

Consider `c1ccc(C2CCOCO2)cc1` (centres undefined), for which the boiling point was 247 °C.

In turn, `CCN(CC)CCOC(=O)c1ccc(N)cc1` yielded a melting point of 61 °C.

As for `O=C1CCCCCO1`, the boiling point stood at 215 °C, the log10 vapour pressure (mmHg) was -0.87, the melting point was -18 °C and the ready biodegradability entry is listed as “readily biodegradable”.

Compound `FC(Cl)=C(Cl)C(F)(F)F` came in with a boiling point of 47.3 °C and a melting point of -137 °C.

As for `CN(C)c1ccc(C=O)cc1`, the log10 vapour pressure (mmHg) was -2.43 and the melting point came out at 74.5 °C.

Regarding `CC1=CC[C@@H](C(C)C)CC1`, the boiling point came out at 174 °C.

`SC1CCCC1`: the boiling point was 132 °C and the log10 vapour pressure (mmHg) is 1.06.

In the case of `OCc1ccc(O)cc1`, the boiling point turned out to be 252 °C and the melting point worked out at 124 °C.

Compound `O=[N+]([O-])c1ccc(-c2ccc([N+](=O)[O-])cc2)cc1` came in with a log10 vapour pressure (mmHg) of -7.56.

Consider `CCc1ccc(CC)c(CC)c1`, for which the boiling point came out at 218 °C.

`C/C=C/C/C=C/CCC(=O)[C@H]1O[C@H]1C(N)=O` came in with a melting point of 93.5 °C.

Turning to `Cc1ccc(Br)cc1N`, the melting point amounted to 33 °C.

As to `NC[C@H]1O[C@H](O[C@H]2[C@H](O[C@@H]3O[C@H](CO)[C@@H](O)[C@H]3O)C(O)[C@H](N)C[C@@H]2N)[C@H](N)[C@@H](O)[C@@H]1O` (some centres undefined), the melting point is 194 °C.

The compound `O=C(Cl)C(Cl)Cl` had a boiling point of 108 °C and a log10 vapour pressure (mmHg) of 1.36.

Consider `Nc1ccc(S(=O)(=O)NC(=O)c2ccccc2)cc1`, for which the melting point stood at 182 °C.

Regarding `COC(=O)c1ccccc1C(=O)O`, the melting point was 83 °C.

Regarding `Oc1ccc2cc(O)ccc2c1`, the melting point came out at 220 °C.

On to `Cc1ccc([N+](=O)[O-])cc1O`, for which the ready biodegradability result is given as “not readily biodegradable”.

As for `O=C(Oc1ccc2ccccc2c1)c1ccccc1`, the melting point came to 107 °C.

Regarding `CCNc1ccc(C)cc1`, the boiling point is 217 °C and the ready biodegradability result is “not readily biodegradable”.

Compound `CCOP(=O)(NC(C)C)Oc1ccc(S(C)=O)c(C)c1` (centres undefined) gave a log10 Koc (L/kg) of 1.57.

For `NCc1ccco1`, the boiling point stood at 146 °C.

Compound `CCc1ccc(C(c2ccc(CC)cc2)C(Cl)Cl)cc1` displayed a melting point of 56 °C.

In turn, `ClC(Cl)C(Cl)Cl` showed a boiling point of 146 °C, a log10 Henry constant (atm·m³/mol) of -3.44, a log10 Koc (L/kg) of 1.9 and a log10 vapour pressure (mmHg) of 0.665. Moreover, the melting point is -43.8 °C and the ready biodegradability result was “not readily biodegradable”.

For `Nc1ccc(S(N)(=O)=O)cc1`, the ready biodegradability entry is listed as “not readily biodegradable”.

As for `Cc1cccc(C(C)(C)C)c1O`, the boiling point amounted to 230 °C, the melting point stood at 31 °C and the ready biodegradability entry was “not readily biodegradable”.

In the case of `CC(=O)OC(OC(C)=O)c1ccccc1`, the boiling point worked out at 220 °C and the melting point stood at 46 °C.

Regarding `Oc1cccc2c1CCCC2`, the boiling point worked out at 266 °C and the melting point turned out to be 70 °C.

In the case of `O=C(O)CO`, the log10 vapour pressure (mmHg) is -1.7, the melting point stood at 79.5 °C and the ready biodegradability entry is reported as “readily biodegradable”.

Compound `Cc1cc(CO)c(O)c(CO)c1` came in with a melting point of 129 °C.

Compound `CCCC(C)(C)C(C)=O` gave a boiling point of 149 °C.

In turn, `N#CCc1c[nH]c2ccccc12` displayed a melting point of 36 °C.

For `C=CC(C)(C)CCC`, the boiling point is 104 °C.

As for `CCCCCCCCCCCCCC(CCCCCCCCCCCC)CCCCCCCCCCCC`, the melting point was 13.7 °C.

In turn, `Clc1ccc(Cl)c(-c2ccccc2)c1` registered a log10 Henry constant (atm·m³/mol) of -3.55 and a log10 vapour pressure (mmHg) of -2.86.

Regarding `CCCNC(=O)COC(=O)c1ccccc1`, the melting point was found to be 89.5 °C.

`O=NN1CCCCC1`: the boiling point is 219 °C.

`CN1CCC(=C2c3ccccc3C=Cc3ccccc32)CC1` returned a melting point of 113 °C.

With `C1CCC(CCCC2CCCC2)CC1`, the boiling point was 270 °C.

For the compound `Cc1cc(C)c(O)c(C)c1`, the boiling point stood at 220 °C, the log10 vapour pressure (mmHg) is -1.76, the melting point was 73 °C and the ready biodegradability entry is on record as “not readily biodegradable”.

`CCCCCCC(=O)OCC`: the boiling point was determined as 187 °C, the log10 Henry constant (atm·m³/mol) was -3.3, the log10 Koc (L/kg) was 2.61 and the log10 vapour pressure (mmHg) was -0.168. This compound also came in with a melting point of -66.1 °C.

Compound `Cc1cccc(N=Nc2ccc(N(C)C)cc2)c1` had a melting point of 138 °C.

Regarding `COC(=O)CCC(=O)OC`, the boiling point was found to be 196 °C, the log10 vapour pressure (mmHg) is -0.387, the melting point turned out to be 19 °C and the ready biodegradability result is recorded as “readily biodegradable”.

For `Cc1ccccc1N=C=O`, the boiling point turned out to be 185 °C.

For the compound `NS(=O)(=O)c1cc2c(cc1C(F)(F)F)NC(Cc1ccccc1)NS2(=O)=O` (centres undefined), the melting point amounted to 222 °C.

Values taken from the OPERA property sets (Mansouri et al. 2018).
